Results from ChEMBL document CHEMBL3885881, “DrugMatrix”.
Values joined by “and” are separate entries in the source; they are usually repeats but may differ in a detail not shown here. Equal values may be shown once.

Organism: Rattus norvegicus
Assay: DrugMatrix - Regimen: Daily Repeat
Format: toxicity, organism-based, Sprague-Dawley
Design: regimen Daily Repeat, gender Male, age 6-8 weeks
Details: in vivo, po, route oral GAVAGE, vehicle .5 % CMC; for ABSOLUTE BASOPHIL / ABSOLUTE LYMPHOCYTE / ABSOLUTE MONOCYTE / ABSOLUTE SEGMENTED NEUTROPHIL / BASOPHIL / EOSINOPHIL / ERYTHROCYTE COUNT / HEMATOCRIT / HEMOGLOBIN / LEUKOCYTE COUNT / LYMPHOCYTE / MEAN CORPUSCULAR HEMOGLOBIN / MEAN CORPUSCULAR HEMOGLOBIN CONCENTRATION / MEAN CORPUSCULAR VOLUME / MONOCYTE / NEUTROPHIL / PLATELET COUNT / ABSOLUTE EOSINOPHIL / NUCLEATED RED BLOOD CELLS: tissue Blood; for ALANINE AMINOTRANSFERASE / ALBUMIN / ALKALINE PHOSPHATASE / ASPARTATE AMINOTRANSFERASE / BLOOD UREA NITROGEN / CARBON DIOXIDE / CHLORIDE / CHOLESTEROL / CREATINE PHOSPHOKINASE / CREATININE / GLUCOSE / LIPASE / PHOSPHORUS / POTASSIUM / SODIUM / TOTAL BILIRUBIN / TOTAL PROTEIN / URIC ACID / LACTATE DEHYDROGENASE: tissue Plasma
[1] = 0 mg/kg, 72 h, dose level Control, time 3 day
[2] = 0 mg/kg, 120 h, dose level Control, time 5 day
[3] = 11 mg/kg, 72 h, dose level Low, time 3 day
[4] = 11 mg/kg, 120 h, dose level Low, time 5 day

SMILES: COc1ccc2c3c1O[C@H]1C[C@@H](O)C=C[C@@]31CCN(C)C2 [GALANTAMINE]
- ABSOLUTE BASOPHIL [1]: 0 CELLS/uL
- ABSOLUTE LYMPHOCYTE [1]: 15937.67 CELLS/uL and 12269.67 CELLS/uL
- ABSOLUTE MONOCYTE [1]: 138.33 CELLS/uL and 160.33 CELLS/uL
- ABSOLUTE SEGMENTED NEUTROPHIL [1]: 1443 CELLS/uL and 970 CELLS/uL
- BASOPHIL [1]: 0%
- EOSINOPHIL [1]: 0.33% and 0%
- ERYTHROCYTE COUNT [1]: 5.45 x10E6/uL and 5.76 x10E6/uL
- HEMATOCRIT [1]: 34.43% and 36.57%
- HEMOGLOBIN [1]: 13.38 G/DL and 14.22 G/DL
- LEUKOCYTE COUNT [1]: 17.57 x10E3/uL and 13.4 x10E3/uL
- LYMPHOCYTE [1]: 90.33% and 91.67%
- MEAN CORPUSCULAR HEMOGLOBIN [1]: 24.6 pg and 24.67 pg
- MEAN CORPUSCULAR HEMOGLOBIN CONCENTRATION [1]: 38.88 G/DL and 38.85 G/DL
- MEAN CORPUSCULAR VOLUME [1]: 63.27 fL and 63.52 fL
- MONOCYTE [1]: 0.83% and 1.17%
- NEUTROPHIL [1]: 8.5% and 7.17%
- PLATELET COUNT [1]: 1298 x10E3/uL and 1250.83 x10E3/uL
- ALANINE AMINOTRANSFERASE [1]: 47.67 u/L and 49.17 u/L
- ALBUMIN [1]: 4.18 G/DL and 4.33 G/DL
- ALKALINE PHOSPHATASE [1]: 398.5 u/L and 378.5 u/L
- ASPARTATE AMINOTRANSFERASE [1]: 93.17 u/L and 82.17 u/L
- BLOOD UREA NITROGEN [1]: 16 mg/dL and 15 mg/dL
- CARBON DIOXIDE [1]: 29.17 mmol/L and 34.33 mmol/L
- CHLORIDE [1]: 98.17 MEQ/L and 99.17 MEQ/L
- CHOLESTEROL [1]: 68.83 mg/dL and 71.17 mg/dL
- CREATINE PHOSPHOKINASE [1]: 467.33 u/L and 258.67 u/L
- CREATININE [1]: 0.14 mg/dL and 0.18 mg/dL
- GLUCOSE [1]: 151.67 mg/dL and 142.67 mg/dL
- LIPASE [1]: 9.33 u/L and 9 u/L
- PHOSPHORUS [1]: 11.97 mg/dL and 11.67 mg/dL
- POTASSIUM [1]: 6.43 MEQ/L and 7.13 MEQ/L
- SODIUM [1]: 140.68 MEQ/L and 142.22 MEQ/L
- TOTAL BILIRUBIN [1]: 0.18 mg/dL
- TOTAL PROTEIN [1]: 5.82 G/DL and 5.77 G/DL
- URIC ACID [1]: 1.48 mg/dL and 1.55 mg/dL
- ABSOLUTE BASOPHIL [2]: 0 CELLS/uL
- ABSOLUTE EOSINOPHIL [2]: 31 CELLS/uL and 23.33 CELLS/uL
- ABSOLUTE LYMPHOCYTE [2]: 14327.83 CELLS/uL and 14943.67 CELLS/uL
- ABSOLUTE SEGMENTED NEUTROPHIL [2]: 1321.67 CELLS/uL and 1084.33 CELLS/uL
- BASOPHIL [2]: 0%
- EOSINOPHIL [2]: 0.17%
- ERYTHROCYTE COUNT [2]: 5.79 x10E6/uL and 5.71 x10E6/uL
- HEMATOCRIT [2]: 36.1% and 35.28%
- HEMOGLOBIN [2]: 14.15 G/DL and 14.27 G/DL
- LEUKOCYTE COUNT [2]: 15.78 x10E3/uL and 16.08 x10E3/uL
- LYMPHOCYTE [2]: 90.5% and 93%
- MEAN CORPUSCULAR HEMOGLOBIN [2]: 24.48 pg and 25.02 pg
- MEAN CORPUSCULAR HEMOGLOBIN CONCENTRATION [2]: 39.22 G/DL and 40.43 G/DL
- MEAN CORPUSCULAR VOLUME [2]: 62.4 fL and 61.82 fL
- MONOCYTE [2]: 0.67% and 0.17%
- NEUTROPHIL [2]: 8.67% and 6.67%
- NUCLEATED RED BLOOD CELLS [2]: 0.17 /100WBC and 0.33 /100WBC
- PLATELET COUNT [2]: 1211.67 x10E3/uL and 1274 x10E3/uL
- ALANINE AMINOTRANSFERASE [2]: 49 u/L and 54.17 u/L
- ALBUMIN [2]: 4.27 G/DL and 4.22 G/DL
- ALKALINE PHOSPHATASE [2]: 356.67 u/L and 373.17 u/L
- ASPARTATE AMINOTRANSFERASE [2]: 90.17 u/L and 81.83 u/L
- BLOOD UREA NITROGEN [2]: 20.5 mg/dL and 16.67 mg/dL
- CARBON DIOXIDE [2]: 29.17 mmol/L and 30.33 mmol/L
- CHLORIDE [2]: 98 MEQ/L and 99 MEQ/L
- CHOLESTEROL [2]: 69.83 mg/dL and 71 mg/dL
- CREATINE PHOSPHOKINASE [2]: 312 u/L and 273.5 u/L
- CREATININE [2]: 0.21 mg/dL and 0.22 mg/dL
- GLUCOSE [2]: 149.83 mg/dL and 141.83 mg/dL
- LACTATE DEHYDROGENASE [2]: 322 u/L and 153.67 u/L
- LIPASE [2]: 10 u/L and 10.33 u/L
- PHOSPHORUS [2]: 12 mg/dL and 11.38 mg/dL
- POTASSIUM [2]: 6.75 MEQ/L and 7.08 MEQ/L
- SODIUM [2]: 142.8 MEQ/L and 142.75 MEQ/L
- TOTAL BILIRUBIN [2]: 0.17 mg/dL and 0.18 mg/dL
- TOTAL PROTEIN [2]: 6.1 G/DL
- URIC ACID [2]: 1.68 mg/dL and 1.67 mg/dL
- ABSOLUTE BASOPHIL [3]: 0 CELLS/uL
- ABSOLUTE EOSINOPHIL [3]: 71.33 CELLS/uL
- ABSOLUTE LYMPHOCYTE [3]: 10973.33 CELLS/uL
- ABSOLUTE MONOCYTE [3]: 201 CELLS/uL
- ABSOLUTE SEGMENTED NEUTROPHIL [3]: 1221 CELLS/uL
- BASOPHIL [3]: 0%
- EOSINOPHIL [3]: 0.67%
- ERYTHROCYTE COUNT [3]: 5.6 x10E6/uL
- HEMATOCRIT [3]: 35.33%
- HEMOGLOBIN [3]: 13.47 G/DL
- LEUKOCYTE COUNT [3]: 12.47 x10E3/uL
- LYMPHOCYTE [3]: 87.67%
- MEAN CORPUSCULAR HEMOGLOBIN [3]: 24.1 pg
- MEAN CORPUSCULAR HEMOGLOBIN CONCENTRATION [3]: 38.13 G/DL
- MEAN CORPUSCULAR VOLUME [3]: 63.17 fL
- MONOCYTE [3]: 1.67%
- NEUTROPHIL [3]: 10%
- NUCLEATED RED BLOOD CELLS [3]: 0 /100WBC
- PLATELET COUNT [3]: 1277.67 x10E3/uL
- ALANINE AMINOTRANSFERASE [3]: 46.67 u/L
- ALBUMIN [3]: 4.13 G/DL
- ALKALINE PHOSPHATASE [3]: 368.33 u/L
- ASPARTATE AMINOTRANSFERASE [3]: 76.33 u/L
- BLOOD UREA NITROGEN [3]: 17 mg/dL
- CARBON DIOXIDE [3]: 29.67 mmol/L
- CHLORIDE [3]: 98.33 MEQ/L
- CHOLESTEROL [3]: 76.33 mg/dL
- CREATINE PHOSPHOKINASE [3]: 222.67 u/L
- CREATININE [3]: 0.18 mg/dL
- GLUCOSE [3]: 154.33 mg/dL
- LACTATE DEHYDROGENASE [3]: 192 u/L
- LIPASE [3]: 9.67 u/L
- PHOSPHORUS [3]: 12.47 mg/dL
- POTASSIUM [3]: 6.58 MEQ/L
- SODIUM [3]: 142 MEQ/L
- TOTAL BILIRUBIN [3]: 0.2 mg/dL
- TOTAL PROTEIN [3]: 5.83 G/DL
- URIC ACID [3]: 1.5 mg/dL
- ABSOLUTE BASOPHIL [4]: 0 CELLS/uL
- ABSOLUTE EOSINOPHIL [4]: 0 CELLS/uL
